Data on four compounds can be found in US20190029257A1, “APPLICATION FOR HERBICIDE-TOLERANT PROTEIN” (BEIJING DABEINONG TECHNOLOGY GROUP CO., LTD., priority 2016, published 2019).

Common to all, as to format: in vivo
For assay [1], the system named is Gm cytoplasmic ALT-2-01 soybean plants. The experiment in a line: Glyphosate tolerance of soybean plants (herbicide damage rate). The conditions noted are these: 840 g ae/ha, 1-fold field concentration; 14 DAT. An excerpt: (§1) The herbicide tolerance effects of Gm cytoplasmic ALT-1-01 soybean plants, Gm chloroplastic ALT-1-01 soybean plants, Gm cytoplasmic ALT-2-01 soybean plants, Gm chloroplastic ALT-2-01 soybean plants, Gm cytoplasmic ALT-3-01 soybean plants, Gm chloroplastic ALT-3-01 soybean plants and wild-type soybean plants on glyphosate were detected (at seedling stage), respectively.
(§2) 2 strains from Gm cytoplasmic ALT-1-01 soybean plants, Gm chloroplastic ALT-1-01 soybean plants, Gm cytoplasmic ALT-2-01 soybean plants, Gm chloroplastic ALT-2-01 soybean plants, Gm cytoplasmic ALT-3-01 soybean plants, Gm chloroplastic ALT-3-01 soybean plants and wild-type soybean plants were respectively taken each, and 10-15 plants were selected from each strain and tested. The plants above were sprayed with glyphosate (840 g ae/ha, 1-fold field concentration) and a blank solvent (water). The herbicide damage rate was measured for each plant according to the phytotoxicity symptoms 14 days after spraying (14 DAT): herbicide damage rate (%)=Σ(number of damaged plants at the same level×level number)/(total number of plants×highest level).

In assay [2] the test system is Gm cytoplasmic ALT-1-01 soybean plants. The description is as above. To be noted: 840 g ae/ha, 1-fold field concentration; 14 DAT.
Text: as §1, §2

For assay [3], the system named is Gm chloroplastic ALT-3-01 soybean plants. The assay is described as above. The conditions noted are these: 840 g ae/ha, 1-fold field concentration; 14 DAT.
Text: as §1, §2

For assay [4], the system named is Gm cytoplasmic ALT-3-01 soybean plants. The assay is described as above. The conditions noted are these: 840 g ae/ha, 1-fold field concentration; 14 DAT.
Text: as §1, §2

In assay [5] the test system is Gm chloroplastic ALT-2-01 soybean plants. The assay is described as above. The conditions noted are these: 840 g ae/ha, 1-fold field concentration; 14 DAT.
Text: as §1, §2

The subject of assay [6] is Gm chloroplastic ALT-1-01 soybean plants. The description is as above. To be noted: 840 g ae/ha, 1-fold field concentration; 14 DAT.
Text: as §1, §2

Assay [7] relates to wild-type soybean plants (CK1). The assay is described as above. To be noted: 840 g ae/ha, 1-fold field concentration; 14 DAT.
Text: as §1, §2

Assay [8] has as its system At chloroplastic ALT-3-01 T1 plants. The experiment in a line: Herbicide tolerance of Arabidopsis thaliana T1 plants (spray, resistance classes counted). To be noted: number of plants 14 days after spraying, Total 32.
Text: (§3) T1 transformants were initially selected from the background of untransformed seeds using a glufosinate selection scheme. About 40000 T1 seeds were screened, and 380 T1 positive transformants (PAT gene) were identified with a transformation efficiency of about 0.95%. The plants that were transformed with the recombinant expression vector DBN100632 were Arabidopsis thaliana plants having an ALT-1-01 nucleotide sequence located in the cytoplasm introduced (At cytoplasmic ALT-1-01), and the plants that were transformed with the recombinant expression vector DBN100631 were Arabidopsis thaliana plants having an ALT-1-01 nucleotide sequence located in the chloroplast introduced (At chloroplastic ALT-1-01); the plants that were transformed with the recombinant expression vector DBN100634 were Arabidopsis thaliana plants having an ALT-2-01 nucleotide sequence located in the cytoplasm introduced (At cytoplasmic ALT-2-01), and the plants that were transformed with the recombinant expression vector DBN100633 were Arabidopsis thaliana plants having an ALT-2-01 nucleotide sequence located in the chloroplast introduced (At chloroplastic ALT-2-01); and the plants that were transformed with the recombinant expression vector DBN100636 were Arabidopsis thaliana plants having an ALT-3-01 nucleotide sequence located in the cytoplasm introduced (At cytoplasmic ALT-3-01), and the plants that were transformed with the recombinant expression vector DBN100635 were Arabidopsis thaliana plants having an ALT-3-01 nucleotide sequence located in the chloroplast introduced (At chloroplastic ALT-3-01). The herbicide tolerance effects of At cytoplasmic ALT-1-01 T1 plants, At chloroplastic ALT-1-01 T1 plants, At cytoplasmic ALT-2-01 T1 plants, At chloroplastic ALT-2-01 T1 plants, At cytoplasmic ALT-3-01 T1 plants, At chloroplastic ALT-3-01 T1 plants and wild-type Arabidopsis thaliana plants on halosulfuron-methyl were detected (14 days after sowing), respectively.
(§4) […] Plants were counted for the resistance situations 14 days after spraying: those having a consistent growth status with the blank solvent (water) group after 14 days were classified as highly resistant plants, those having a bolting height less than ½ of that of the blank solvent (water) group after 14 days were classified as moderately resistant plants, those still not capable of bolting after 14 days were classified as poorly resistant plants, and those dead after 14 days were classified as non-resistant plants. Since each Arabidopsis thaliana T1 plant was an independent transformation event, a significant difference in individual T1 responses could be expected at a given dose.
as §4, with “situation” for “situations”

In assay [9] the test system is At chloroplastic ALT-1-01 T1 plants. The assay is described as above. The conditions noted are these: number of plants 14 days after spraying.
Text: as §3, §4
as §4, with “situation” for “situations”

In assay [10] the test system is At cytoplasmic ALT-3-01 T1 plants. The assay is described as above. To be noted: number of plants 14 days after spraying, Total 30.
Text: as §3, §4
as §4, with “situation” for “situations”

Assay [11] has as its system At cytoplasmic ALT-2-01 T1 plants. The assay is described as above. The conditions noted are these: number of plants 14 days after spraying.
Text: as §3, §4
as §4, with “situation” for “situations”

The subject of assay [12] is At chloroplastic ALT-2-01 T1 plants. The description is as above. To be noted: number of plants 14 days after spraying.
Text: as §3, §4
as §4, with “situation” for “situations”

For assay [13], the system named is At cytoplasmic ALT-1-01 T1 plants. The description is as above. To be noted: number of plants 14 days after spraying, Total 29.
Text: as §3, §4
as §4, with “situation” for “situations”

The subject of assay [14] is all the transformed Arabidopsis thaliana T1 plants (ALT-1, ALT-2 and ALT-3). Nature of the assay: Herbicide tolerance of Arabidopsis thaliana T1 plants. To be noted: 1-fold field concentration; summary of Table 2. An excerpt:
(§5) At cytoplasmic ALT-1-01 T1 plants, At chloroplastic ALT-1-01 T1 plants, At cytoplasmic ALT-2-01 T1 plants, At chloroplastic ALT-2-01 T1 plants, At cytoplasmic ALT-3-01 T1 plants, At chloroplastic ALT-3-01 T1 plants and wild-type Arabidopsis thaliana plants were sprayed with halosulfuron-methyl (34 g ai/ha, 1-fold field concentration) and a blank solvent (water), respectively. Plants were counted for the resistance situations 14 days after spraying: those having a consistent growth status with the blank solvent (water) group after 14 days were classified as highly resistant plants, those having a bolting height less than ½ of that of the blank solvent (water) group after 14 days were classified as moderately resistant plants, those still not capable of bolting after 14 days were classified as poorly resistant plants, and those dead after 14 days were classified as non-resistant plants. Since each Arabidopsis thaliana T1 plant was an independent transformation event, a significant difference in individual T1 responses could be expected at a given dose.
At cytoplasmic ALT-1-01 T1 plants, At chloroplastic ALT-1-01 T1 plants, At cytoplasmic ALT-2-01 T1 plants, At chloroplastic ALT-2-01 T1 plants, At cytoplasmic ALT-3-01 T1 plants, At chloroplastic ALT-3-01 T1 plants and wild-type Arabidopsis thaliana plants in Example 4 were sprayed with iodosulfuron-methyl (10 g ai/ha, 1-fold field concentration), mesosulfuron (14 g ai/ha, 1-fold field concentration) and oxasulfuron (60 g ai/ha, 1-fold field concentration), respectively, in addition to halosulfuron-methyl (34 g ai/ha, 1-fold field concentration) and the blank solvent (water). Plants were counted for the resistance situation 14 days after spraying: those having a consistent growth status with the blank solvent (water) group after 14 days were classified as highly resistant plants, those having a bolting height less than ½ of that of the blank solvent (water) group after 14 days were classified as moderately resistant plants, those still not capable of bolting after 14 days were classified as poorly resistant plants, and those dead after 14 days were classified as non-resistant plants. Since each Arabidopsis thaliana T1 plant was an independent transformation event, a significant difference in individual T1 responses could be expected at a given dose.

Assay [15] relates to wild-type Arabidopsis thaliana plants. The experiment in a line: Herbicide tolerance of Arabidopsis thaliana plants (spray, resistance classes counted). To be noted: 10 g ai/ha (1x Iod.); number of plants 14 days after spraying; Total 29.
Text: as §3, §5
At cytoplasmic ALT-1-01 T1 plants, At chloroplastic ALT-1-01 T1 plants, At cytoplasmic ALT-2-01 T1 plants, At chloroplastic ALT-2-01 T1 plants, At cytoplasmic ALT-3-01 T1 plants, At chloroplastic ALT-3-01 T1 plants and wild-type Arabidopsis thaliana plants in Example 4 were sprayed with iodosulfuron-methyl (10 g ai/ha, 1-fold field concentration), mesosulfuron (14 g ai/ha, 1-fold field concentration) and oxasulfuron (60 g ai/ha, 1-fold field concentration), respectively, in addition to halosulfuron-methyl (34 g ai/ha, 1-fold field concentration) and the blank solvent (water). […]

[16] abbreviates: 14 g ai/ha (1x Mes.), genotype cell prints only "At".

Each structure is given as a SMILES string.

Take `O=C(O)CNCP(=O)(O)O` [glyphosate, N-phosphonomethylglycine]: the “glyphosate herbicide damage rate” value in [1], in [2], in assay [3], in assay [4], in assay [5] and in assay [6] was ~0% throughout. For the same compound, in assay [7], the “glyphosate herbicide damage rate” value is “not less than 90%”.

Consider `COC(=O)c1ccc(I)cc1S(=O)(=O)NC(=O)Nc1nc(C)nc(OC)n1` [iodosulfuron-methyl], for which the Highly resistant in [8] (10 g ai/ha (1x Iod.)) amounted to 0; in [9] (10 g ai/ha (1x Iod.), Total 30) it was 0; in assay [10] (10 g ai/ha (1x Iod.)), 0; in assay [11] (10 g ai/ha (1x Iod.), Total 30), 0; in assay [12] (10 g ai/ha (1x Iod.), Total 31), 0; in assay [13] (10 g ai/ha (1x Iod.)), 0. Moreover, in assay [15], the Highly resistant came out at 0. For the same compound, the Moderately resistant in assay [8] (10 g ai/ha (1x Iod.)) amounted to 0; in assay [9] (10 g ai/ha (1x Iod.), Total 30), 0; in assay [10] (10 g ai/ha (1x Iod.)), 0; in [11] (10 g ai/ha (1x Iod.), Total 30), 0; in [12] (10 g ai/ha (1x Iod.), Total 31), 0; in [13] (10 g ai/ha (1x Iod.)), 0. The compound also returned a Moderately resistant in [15] of 0. Moreover, the Non-resistant in assay [8] (10 g ai/ha (1x Iod.)) was found to be 32; in assay [9] (10 g ai/ha (1x Iod.), Total 30), 30; in assay [10] (10 g ai/ha (1x Iod.)) it was 30; in assay [11] (10 g ai/ha (1x Iod.), Total 30), 30; in assay [12] (10 g ai/ha (1x Iod.), Total 31), 31; in assay [13] (10 g ai/ha (1x Iod.)), 29. This compound also came in with a Non-resistant in [15] of 29. Besides, the Poorly resistant in [8] (10 g ai/ha (1x Iod.)) is 0; in assay [9] (10 g ai/ha (1x Iod.), Total 30), 0; in assay [10] (10 g ai/ha (1x Iod.)), 0; in [11] (10 g ai/ha (1x Iod.), Total 30), 0; in assay [12] (10 g ai/ha (1x Iod.), Total 31) it was 0; in [13] (10 g ai/ha (1x Iod.)), 0. Also, in assay [15], the Poorly resistant came out at 0. Further, in [14], the “ability of the transformed plants to degrade the herbicide” value (shortened to “ability of the transformed plants”) is on record as “did not exhibit the ability to degrade”. The “degree of damage, transformed versus wild-type plants” value in assay [14] is “no difference”.

As to `COC(=O)c1ccc(CNS(C)(=O)=O)cc1S(=O)(=O)NC(=O)Nc1nc(OC)cc(OC)n1` [mesosulfuron], the Highly resistant in [8] (setting [16]) is on record as 0; in [9] (14 g ai/ha (1x Mes.), Total 32), 0; in assay [10] (14 g ai/ha (1x Mes.)), 0; in assay [11] (14 g ai/ha (1x Mes.), Total 32), 0; in [12] (14 g ai/ha (1x Mes.), Total 30), 0; in assay [13] (14 g ai/ha (1x Mes.)) it was 0. The Moderately resistant was determined as 0 in assay [8] (setting [16]); 0 in [9] (14 g ai/ha (1x Mes.), Total 32); 0 in [10] (14 g ai/ha (1x Mes.)); 0 in assay [11] (14 g ai/ha (1x Mes.), Total 32); 0 in [12] (14 g ai/ha (1x Mes.), Total 30); 0 in assay [13] (14 g ai/ha (1x Mes.)). Besides, the Non-resistant in assay [8] (setting [16]) came to 32; in assay [9] (14 g ai/ha (1x Mes.), Total 32), 32; in assay [10] (14 g ai/ha (1x Mes.)) it was 30; in assay [11] (14 g ai/ha (1x Mes.), Total 32) it was 32; in [12] (14 g ai/ha (1x Mes.), Total 30), 30; in assay [13] (14 g ai/ha (1x Mes.)), 29. Also, the Poorly resistant in assay [8] (setting [16]) was 0; in [9] (14 g ai/ha (1x Mes.), Total 32), 0; in assay [10] (14 g ai/ha (1x Mes.)), 0; in assay [11] (14 g ai/ha (1x Mes.), Total 32) it was 0; in assay [12] (14 g ai/ha (1x Mes.), Total 30), 0; in assay [13] (14 g ai/ha (1x Mes.)), 0. In addition, the “ability of the transformed plants” value in assay [14] was “did not exhibit the ability to degrade”. Further, in [14], the “degree of damage, transformed versus wild-type plants” value is given as “no difference”.

Consider `Cc1cc(C)nc(NC(=O)NS(=O)(=O)c2ccccc2C(=O)OC2COC2)n1` [oxasulfuron], for which, in assay [14], the “ability of the transformed plants” value was “did not exhibit the ability to degrade” and the “degree of damage, transformed versus wild-type plants” value is listed as “no difference”.
